Results as given in patent publication US20230233617A1, “METHODS FOR DIFFERENTIATING STEM CELLS INTO DOPAMINERGIC PROGENITOR CELLS” (JZ CELL TECHNOLOGIES AB, priority 2020, published 2023).

Legend:
[1] = system: β-catenin; assay: β-CATENIN nuclear levels in cultures at 2 DDC; format: cell-based, human; conditions: dSMADi+SAG
Excerpt: FIG. 2: Specification of NSC with ventral midbrain identity using RA and SHH signaling. (a) Schematic of hPSCs differentiation with timeline of treatment with RA and activator of SHH signaling (SAG) (top). Immunocytochemistry for indicated markers at 9 DDC in cultures differentiated in dSMADi+SAG-condition and pulsed with RA for 1-, 2- or 4-days (bottom). (b) Relative gene expression (FPKM) of indicated genes in 9 DDC cultures differentiated in dSMADi+SAG-conditions and treated with RA for the indicated time. (c) Heatmap and hierarchical clustering of differentially expressed genes of 9 DDC cultures differentiated in dSMADi+SAG-condition and treated with RA for the indicated time. (d) Schematic of gene expression profiles defining distinct ventral progenitors in the diencephalon (Di), midbrain (MB) and hindbrain (HB) positions. (e) Expression of genes associated with the indicated regional progenitors at 14 DDC in cultures differentiated in dSMADi+SAG+RA^2D condition. (f) Immunocytochemistry for β-CATENIN (left) and boxplots of β-CATENIN nuclear levels (right) in cultures at 2 DDC differentiated in dSMADi+SAG-condition (control) and treated with RA or CHIR99021. Boxplot, whiskers define 5th and 95th percentile. Asterisks, Student t test; **p<0.01, ***p<0.001. (g) Immunocytochemistry for the indicated markers in cultures at 14 DDC differentiated in dSMADi+SAG+RA^2D condition. […]

[2] = system: hPSC-derived vMB progenitors; assay: Neurogenesis and mDA neuron yield in differentiating hPSC cultures (HuCD, TuJ1, TH, GABA immunocytochemistry, electrophysiology); format: cell-based, human
Excerpt: A unique feature of mDA neurons is that they originate from initially non-neuronal floor plate (FP) cells at the ventral midline of the MB, and progenitors must acquire neuronal potential prior to differentiation into neurons^30,44. Few markers distinguish between these states, but downregulation of SHH and upregulation pro-neural bHLH proteins over time correlate with this transition^44. […] In RA^2D+SAG cultures at 21 DDC, ˜30% of DAPI^+ cells accounted for HuCD^+ neurons (FIG. 4d) and many of these had initiated expression of TH (FIG. 4c). When we instead used CHIR99021+SAG to specify LMX1A^+/NKX2.1^− vMB progenitors (FIG. 3b), cells initiated neurogenesis at around 17 DDC (FIG. 4c, d) which is consistent with previous studies^9,13. At 21 DDC, HuCD^+ neurons constituted ˜10% of total cells and few neurons expressed TH (FIG. 4c, d).
TH^+ neurons acquired a progressively more advanced neuronal morphology with a progressive outgrowth of TH^+ axonal processes in RA^2D+SAG cultures between 30-45 DDC (FIG. 4e, g, h; FIG. 8f (Supplementary FIG. 2f)). TH^+ neurons expressed mDA neuron markers LMX1A, LMX1B, FOXA2, NURR1, and OTX2 at 30-35 DDC (FIG. 4e). […] TH^+ neurons also expressed the mature neuronal marker SYNAPTOPHYSIN and the monoaminergic marker VMAT2 (FIG. 40. A subset of cells expressed GIRK2 or CALBINDIN indicating the presence of both A9- and A10-like subtypes of mDA neurons^45 (FIG. 4f). At 35 DDC, ˜80% of neurons expressed TH^+ which corresponded to ˜65% of total DAPI^+ cells (FIG. 4i, j). ˜10% of neurons expressed GABA (FIG. 4i, j), and some of these co-expressed TH (FIG. 10c (Supplementary FIG. 4c)). Only rare neurons expressing 5-HT or the MN marker PERIPHERIN were detected (FIG. 4i, j). High performance liquid chromatography (HPLC) analyses at 42 DDC established that neurons produced and released dopamine (FIG. 4k, I) but not serotonin (5-HT) or noradrenaline (NA) (FIG. 4k). […] Very few cells expressed Ki67 or phospho-histone H3 at 35-40 DDC indicating low mitotic activity after long-term culturing of cells (FIG. 4i). Functional maturation of mDA neurons in vitro can be monitored by determining the time when hPSC-derived mDA neurons acquire spontaneous action potentials, evoked action potentials and voltage-dependent Na^+ and K^+ currents, and these traits were previously reported to be attained after ˜60 days of culture of FACS-enriched mDA neurons (25+36 days: before/after sorting) using current state-of-the-art protocols^7. […] Neurons showing both spontaneous (FIG. 4m) and evoked action potentials (FIG. 4n) could be recorded at 40 DDC.
80-90% confluent PSCs cultures were rinsed twice with PBS, treated with EDTA (0.5 mM in PBS) for 5-7 min, and resuspended into single cell suspension in PBS. Cells were spin down at 400 g and resuspended in N2B27 medium (DMEM/F12: Neurobasal (1:1), 0.5×N2 and 0.5×B27 (plus vitamin A) supplements, 1×nonessential amino acids, 1% GlutaMAX, 55 μM β-mercaptoethanol-all from Thermo Fisher Scientific) containing 5 μM SB431542 (Miltenyi Biotech) and 2.5 μM DMH1 (Santa Cruz Biotech) (dual SMAD inhibition), and 10 μM ROCK inhibitor (for the first 48 hours after seeding). Cells were seeded on VTN (2 μg/cm^2) and Fibronectin (FN) (2 μg/cm^2) (Sigma) coated surface at a density of 60,000-80,000 cells/cm^2 for RA- and RA-analogues based experiments, and 20,000 cells/cm^2 for CHIR99021 experiments. SAG1.3 (Santa Cruz Biotechnology), CHIR99021 (Miltenyi Biotech), all-trans RA, 9-cis RA, 13-cis RA, Tazarotenic acid, R115866 (all Sigma), EC23 (Amsbio) were used at concentrations and time points described in the result section. For mDA neuron differentiation (see schematic drawing FIG. 4) neural progenitors were mechanically dissociated at 9 DDC with Stem Cell Passaging Tool (Thermo Fisher Scientific) and seeded at 1:3 ratio in N2B27 medium containing 10 μM ROCK inhibitor (for first 48 hours after dissociation) on VTN and FN coated surfaces. […]

In the case of `CC1=C(/C=C/C(C)=C/C=C/C(C)=C/C(=O)O)C(C)(C)CCC1` [RA, all-trans retinoic acid], the β-catenin in nuclei [1] is reported as “no accumulation of β-catenin in nuclei”, the “share of cell population that are ventral midbrain dopaminergic progenitor cells (FOXA2, LMX1A, LMX1B, OTX2)” value ([2]; 14 DDC, immunocytochemistry) is reported as “about 80%” and the “HuCD+ neurons as share of total DAPI+ cells” value ([2]; 21 DDC, with SAG) is reported as about 30%. The “TH+ cells of total DAPI+ cells” value ([2]; RA^2D+SAG, 35 DDC) was about 65%, the “neurons expressing GABA” value ([2]; RA^2D+SAG, 35 DDC) was about 10% and the “neurons expressing TH” value ([2]; RA^2D+SAG, 35 DDC, of neurons) was about 80%. The “culture time to mDA neurons exhibiting mature functional features” value ([2]; RA^2D+SAG, spontaneous and evoked action potentials) was 40 days and the “time of initiation of neurogenesis (first neurons)” value ([2]; with SAG) was 12 DDC.
